For data set [1], the system named is HL-60 (human leukemia) cells. Briefly: Cell-based assay: protection from cell death induced by serum deprivation (Alamar Blue). Conditions: median effective concentration preventing cell death, HL-60, 0.1% FCS, 24 hr. The procedure:
HL-60 (human leukemia) cells are grown and maintained using standard procedures in RPMI 1640+Glutamax medium supplemented with 10% fetal calf serum (FCS). For assay, cells are suspended in medium supplemented with 0.1% FCS at 0.5 million cells/mL and seeded into 96 well plates (100 μL/well). After preincubation for 3 hrs, cells are treated with compound for 1 hr, then Alamar Blue (Serotec) is added to the cells. After a further 24 hr incubation, fluorescence is measured (ex 560 nm, em 590 nm). Decrease in fluorescence compared to control cells (10 μM of a potent PARP inhibitor) is a measure of cell death. Increased fluorescence in the presence of test compound indicates protection from cell death induced by serum deprivation. For detection of polyADP-ribosylation, cells are subjected to serum deprivation in the presence and absence of compound. Cells are lysed and proteins are run on an SDS-PAGE gel. PolyADP-ribosylated proteins are detected with antibody to polyADP-ribose (Alexis or Calbiochem).
The results obtained from this study are expressed as EC50 (median effective concentration of the test compound that was effective in preventing the cell death—expressed in micromolar (μM) concentration) for each of the tested compounds and are summarized in Table 4.

In data set [2] the target is T1, human PARP (PARP1) (Homo sapiens, UniProt P09874). Briefly: PARP enzyme assay of Table 3 (radioactive enzyme assay or 'ELISA' enzyme assay).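 Also: Baculovirus-expressed PARP1 from insect cells, activity read as tritium from labeled NAD in acid-precipitated protein, or as biotin-NAD built into plate-bound histone by absorbance at 450 nm.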 As to conditions: IC50 (μM), fifty percent inhibitory concentration; recombinant human PARP.
T1 sequence (P09874 whole entry): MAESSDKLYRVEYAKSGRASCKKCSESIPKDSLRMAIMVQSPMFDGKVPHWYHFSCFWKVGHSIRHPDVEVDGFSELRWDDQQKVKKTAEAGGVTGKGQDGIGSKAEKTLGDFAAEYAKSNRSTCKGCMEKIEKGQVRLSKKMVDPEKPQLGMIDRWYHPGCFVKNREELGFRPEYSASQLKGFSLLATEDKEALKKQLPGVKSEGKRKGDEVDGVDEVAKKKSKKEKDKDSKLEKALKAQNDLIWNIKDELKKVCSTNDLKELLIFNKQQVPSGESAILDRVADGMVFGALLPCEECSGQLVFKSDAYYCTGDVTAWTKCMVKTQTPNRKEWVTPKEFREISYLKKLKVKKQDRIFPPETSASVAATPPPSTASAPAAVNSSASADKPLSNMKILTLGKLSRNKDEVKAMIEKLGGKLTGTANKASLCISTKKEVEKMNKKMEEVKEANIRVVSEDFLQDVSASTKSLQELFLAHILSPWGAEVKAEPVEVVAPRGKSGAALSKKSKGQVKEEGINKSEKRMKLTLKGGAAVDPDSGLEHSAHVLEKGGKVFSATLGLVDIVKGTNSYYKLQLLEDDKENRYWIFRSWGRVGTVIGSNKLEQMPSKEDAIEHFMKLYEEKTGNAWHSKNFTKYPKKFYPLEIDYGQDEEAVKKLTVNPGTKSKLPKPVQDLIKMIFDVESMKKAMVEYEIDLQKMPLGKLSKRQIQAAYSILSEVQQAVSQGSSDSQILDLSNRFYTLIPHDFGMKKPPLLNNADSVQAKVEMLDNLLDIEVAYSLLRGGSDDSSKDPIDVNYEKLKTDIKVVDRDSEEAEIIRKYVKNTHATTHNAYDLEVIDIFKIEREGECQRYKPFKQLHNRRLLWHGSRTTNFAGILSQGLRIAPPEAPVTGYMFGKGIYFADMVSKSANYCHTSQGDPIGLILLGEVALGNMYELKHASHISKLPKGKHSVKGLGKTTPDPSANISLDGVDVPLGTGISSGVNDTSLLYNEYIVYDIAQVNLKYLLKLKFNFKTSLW
Procedure: The compounds of this invention are then tested with this enzyme preparation using either the radioactive enzyme assay or by the “ELISA” enzyme assay as set forth below.
Incorporation of radioactivity from labeled NAD into acid-precipitated protein is measured. The reaction mixture (volume 100 μL or 50 μL, in a test-tube or 96-well plate) contained 100 μg/mL calf thymus DNA (sonicated), 100 μg/mL histones, 100 mM Tris (pH 8.0), 1.0 mM DTT, 10 mM MgCl2, NAD (200 μm, 0.65 microcurie/mL), and varying amounts of enzyme. The reaction was incubated for 10 min at 37° C. or at room temperature for 60 min. The reaction was stopped and protein precipitated by addition of ice-cold trichloroacetic acid (TCA; 10% or 20% aqueous w/v). After brief storage in ice or at 4° C. for 2 hrs, the reaction mixture is filtered under vacuum through a glass fiber filter (2.5 cm disc, or 96-well filter plate). After washing with TCA and ethanol, the filter is dried and counted for tritium CPM after addition of scintillation fluid.
Incorporation of biotin-NAD into histone coated on plate is measured. A 96-well protein-binding EIA plate is coated with histone and blocked with bovine serum albumin. The reaction mixture (50 μL) contained DNA, buffer, enzyme, (test compound), and 250 μM of NAD and 5 μL of biotin-NAD (Trevigen). After reaction at room temperature the wells are washed and treated with Extravidin (Sigma). After incubation and washing color is developed with the peroxidase substrate TMB (Sigma). The TMB reaction is quenched with 2M sulfurric acid and the absorbance at 450 nm is read.
Data set [3] deals with T1, human PARP (PARP1). In words: Radioactivity enzyme assay: incorporation of labeled NAD into acid-precipitated protein. The data set is classed as biochemical. As to conditions: reference compounds, NAD 200 μm.
Source text: Full length human PARP (PARP1) is assembled from PCR fragments of a clone from a human brain cDNA library and two Incyte clones. The PARP gene (3046 bp) is sub-cloned into pFastBac-HTb vector to give PARP-pFastBac-HTh and the sequence of this clone is verified. PARP-pFastBac-HTb is expressed to obtain protein using the Bac-to-Bac expression protocol from Gibco-BRL. The recombinant virus generated is used to scale up the material for purification.
Cell pellets from cell broth of cells expressing PARP are treated with a cocktail of protease inhibitors and lysed by 4 freeze-thaw cycles. The material is suspended in 10 mM HEPES/0.1M NaCl/pH 7.2, stirred, and then centrifuged. A 40%-70% ammonium sulfate cut of protein pellet is obtained from the supernatant. The pellet is solubilized in 10 mM HEPES/pH 7.2 and centrifuged. The supernatant buffer is exchanged to 10 mM HEPES/pH 7.2/0.1M NaCl/25% glycerol by dialysis or with a desalting column. The enzyme preparation is stored at −20° C. until use.
Incorporation of radioactivity from labeled NAD into acid-precipitated protein is measured. […] After washing with TCA and ethanol, the filter is dried and counted for tritium CPM after addition of scintillation fluid.
In another data set the test system is Male Fisher 344 rats. In words: Stroke model: middle cerebral artery (MCA) occlusion, infarct volume. Conditions: total dose 40 mg/kg i.v. (10 mg/kg bolus plus 5 mg/kg/hr for 6 hrs) 15 min after MCA occlusion; 48 hours post-occlusion. The data set is classed as in vivo, rat. The procedure:
Male Fisher 344 rats are anesthetized. The right carotid artery is isolated and ligated, and the right jugular vein is canulated for compound administration. The middle cerebral artery (MCA) was exposed through a craniotomy, and the MCA and its right branch, the lenticulostriate artery are electrocoagulated. The arteries are cut to avoid recanalization. […] The compounds are given as a 10 mg/kg bolus followed by an infusion of 5 mg/kg/hr for 6 hrs (total dose 40 mg/kg).
48 Hours post-MCA occlusion the rats are sacrificed, and the brains removed and cut into 2-mm coronal sections.
A total dose of 40 mg/kg of 2-(piperazin-1-yl)-1-phenyl-1H-indole-3-carboxaldehyde (Example 3) is given as bolus plus infusion as described above.

The subject of the next data set is Male Sprague-Dawley rats. In words: Myocardial ischemia model: coronary artery occlusion and reperfusion, infarct size. Conditions: 20 min occlusion, 60 min reperfusion; for infarct size (% of area at risk), effect when given prior to reperfusion: 10 mg/kg i.v. 5 min prior to reperfusion (Example 3); for infarct size (% of area at risk), effect when given prior to ischemia: 10 mg/kg i.v. 10 min prior to occlusion (Example 3). The data set is classed as in vivo, rat. The text has this:
Male Sprague-Dawley rats are anesthetized and the chest is opened. A thin silk thread is placed around the left anterior descending coronary artery. The silk is passed through a plastic tube and the chest is closed. After stable hemodynamics, the coronary artery is occluded by applying tension to the thread via the tube. Successful occlusion is confirmed by a decrease in systolic blood pressure and alterations in ECG. Reperfusion is initiated by releasing the tension on the ligature.
For testing efficacy of Example 3 in this animal model, animals are divided into three groups. One group received the compound of Example 3 at 10 mg/kg i.v. 10 min prior to occlusion. A second group received compound of Example 3 at the same dose 5 min prior to reperfusion. The third group served as vehicle control. The period of occlusion is 20 min, followed by reperfusion for 60 min. After sacrifice infarct size is measured by staining of heart tissue slices with triphenyltetrazolium chloride and expressed as a percent (%) of area at risk.
A similar study is carried out with cariporide, a reference standard.

Structures are written as SMILES. Counter-ions that a name gives are not always drawn.

With `O=Cc1c(N2CCNCC2)n(-c2ccsc2)c2ccccc12` [Example 12, 2-(Piperazin-1-yl)-1-(thien-3-yl)-1H-indole-3-carboxaldehyde], in data set [1], the EC50 turned out to be 3 µM. In addition, at human PARP (PARP1) [2], the IC50 amounted to 2 µM.

In the case of `O=Cc1c(N2CCNCC2)n(Cc2ccccc2)c2ccccc12`, the melting point was in the range of 163 to 165 °C.

As for `Oc1cccc2c(O)nccc12` [1,5-isoquinolinediol], the IC50 at human PARP (PARP1) [3] was found to be 1 µM.

Compound `O=Cc1c(N2CCNCC2)n(-c2ccccc2)c2ccccc12` [Example 3, 2-(Piperazin-1-yl)-1-phenyl-1H-indole-3-carboxaldehyde] gave an EC50 in data set [1] of 1.9 µM. Moreover, the “reduction in infarct volume” value in the data set with Male Fisher 344 rats is 40-50%. In the data set on Male Sprague-Dawley rats, the “infarct size (% of area at risk), effect when given prior to reperfusion” value is “small but significant effect” and the “infarct size (% of area at risk), effect when given prior to ischemia” value is “significant protection”. Also, at human PARP (PARP1) [2], the IC50 came to 2.5 µM.

Take `C=Cc1ccc(-n2c(N3CCNCC3)c(C=O)c3ccccc32)cc1` [Example 56, 2-(Piperazin-1-yl)-1-(4-vinylphenyl)-1H-indole-3-carboxaldehyde]: the IC50 on human PARP (PARP1) [2] came to 1.5 µM.

Turning to `Cn1c(N2CCNCC2)c(C=O)c2ccccc21` [Example 9, 2-(Piperazin-1-yl)-1-methyl-1H-indole-3-carboxaldehyde], the EC50 in data set [1] was found to be 8 µM. At human PARP (PARP1) [2], the IC50 was determined as 27.5 µM.

`O=Cc1c(N2CCN(CCO)CC2)n(-c2ccccc2)c2ccccc12` [Example 2, 2-[4-(2-hydroxyethyl)piperazin-1-yl]-1-phenyl-1H-indole-3-carboxaldehyde] had a half-maximal effective concentration (EC50) in data set [1] of 3.4 µM. Further, at human PARP (PARP1) [2], the IC50 was 4.6 µM.

For `O=Cc1c(N2CCNCC2)n(-c2ccc(F)c(Cl)c2)c2ccccc12` [Example 11B-7, 2-(Piperazin-1-yl)-1-(3-chloro-4-fluorophenyl)-1H-indole-3-carboxaldehyde], at human PARP (PARP1) [2], the IC50 came to 4 µM.

Consider `O=Cc1c(N2CCNCC2)n(-c2cccnc2)c2ccccc12` [Example 13, 2-(Piperazin-1-yl)-1-(pyridin-3-yl)-1H-indole-3-carboxaldehyde], for which the IC50 at human PARP (PARP1) [2] was 3 µM.

Regarding `CC(C)(C)OC(=O)N1CC2CC1CN2c1c(C=O)c2ccccc2n1-c1ccccc1` (stereo not shown) [Example 45, 5-(3-Formyl-1-phenyl-1H-indol-2yl)-2,5-diazabicyclo[2.2.1]heptane-2-carboxylic acid tert-butyl ester], the half-inhibitory concentration (IC50) on human PARP (PARP1) [2] was 5.1 µM.

Take `CC(=O)Nc1cccc(-n2c(N3CCNCC3)c(C=O)c3ccccc32)c1` [Example 62, N-{3-[3-Formyl-2-(piperazin-1-yl)-indol-1-yl]phenyl}-acetamide Hydrochloride]: at human PARP (PARP1) [2], the IC50 is 0.99 µM.

Regarding `CC(C)c1ccc(C(=O)NC(=N)N)cc1S(C)(=O)=O` [cariporide, reference compound], in the data set on Male Sprague-Dawley rats, the “infarct size (% of area at risk), effect when given prior to reperfusion” value was “no effect” and the “infarct size (% of area at risk), effect when given prior to ischemia” value was “significant protection”.

For the compound `O=Cc1c(N2CCNCC2)n(-c2cccc3ccccc23)c2ccccc12` [Example 11B-2, 2-(Piperazin-1-yl)-1-(1-naphthyl)-1H-indole-3-carboxaldehyde], the IC50 at human PARP (PARP1) [2] stood at 4 µM.

Regarding `CN(C)c1ccc(-n2c(N3CCNCC3)c(C=O)c3ccccc32)cc1` [Example 51, 1-(4-Dimethylaminophenyl)-2-piperazin-1-yl-1H-indole-3-carboxaldehyde], the half-inhibitory concentration (IC50) at human PARP (PARP1) [2] stood at 26 µM.

Turning to `O=Cc1c(N2CCOCC2)n(-c2ccccc2)c2ccccc12` [Example 43, 2-(Morpholin-4-yl)-1-phenyl-1H-indole-3-carboxaldehyde], the IC50 at human PARP (PARP1) [2] amounted to 11.4 µM.

Take `O=Cc1c(N2CC3CC2CN3)n(-c2ccccc2)c2ccccc12` (stereo not shown) [Example 21]: the IC50 on human PARP (PARP1) [2] turned out to be 5.1 µM.

Regarding `O=Cc1c(N2CCNCC2)n(-c2cccc(F)c2)c2ccccc12` [Example 11B-10, 2-(Piperazin-1-yl)-1-(3-fluorophenyl)-1H-indole-3-carboxaldehyde], the IC50 at human PARP (PARP1) [2] worked out at 2.5 µM.

`COc1cccc(-n2c(N3CCNCC3)c(C=O)c3ccccc32)c1` [Example 11B-8, 2-(Piperazin-1-yl)-1-(3-methoxyphenyl)-1H-indole-3-carboxaldehyde]: the IC50 at human PARP (PARP1) [2] turned out to be 5.5 µM.

For the compound `O=Cc1c(N2CCNCC2)n(-c2cccc([N+](=O)[O-])c2)c2ccccc12` [Example 11B-1, 2-(Piperazin-1-yl)-1-(3-nitrophenyl)-1H-indole-3-carboxaldehyde], at human PARP (PARP1) [2], the IC50 is 2.5 µM.

For the compound `Cc1ccc(-n2c(N3CCNCC3)c(C=O)c3ccccc32)cc1[N+](=O)[O-]` [Example 50, 1-(4-Methyl-3-nitrophenyl)-2-(piperazin-1-yl)-1H-indole-3-carboxaldehyde], the IC50 on human PARP (PARP1) [2] was determined as 1.4 µM.

With `O=Cc1c(N2CCNCC2)n(-c2ccc(Cl)cc2)c2ccccc12` [Example 11B-6, 2-(Piperazin-1-yl)-1-(4-chlorophenyl)-1H-indole-3-carboxaldehyde], the IC50 on human PARP (PARP1) [2] was found to be 4 µM.

In the case of `O=Cc1c(N2CCNCC2)n(-c2ccc(Br)cc2)c2ccccc12` [Example 11B-5, 2-(Piperazin-1-yl)-1-(4-bromophenyl)-1H-indole-3-carboxaldehyde], the IC50 at human PARP (PARP1) [2] is 3 µM.

With `CCc1ccc(-n2c(N3CCNCC3)c(C=O)c3ccccc32)cc1` [Example 48, 1-(4-Ethylphenyl)-2-(piperazin-1-yl)-1H-indole-3-carboxaldehyde Hydrochloride], the IC50 at human PARP (PARP1) [2] came out at 15.5 µM.

The values are drawn from patent publication US8008491B2, “Substituted AZA-indoles as inhibitors of poly(ADP-ribose) polymerase (PARP)” (Aventis Pharmaceuticals, Inc., priority 2003, dated 2011).
